Experiments:
BCE cells = assay: Intracellular gradient formation of a membrane permeable nucleic acid binding dye in a single BCE cell; type: cell-based, Bovine; settings: 60 μM Syto 9 in DMEM/10% CS over one portion of the cell, dye-free media over the other
Method: Bovine adrenal capillary endothelial (BCE) cells were cultured and harvested as described in D. E. Ingber & J. Folkman, J. Cell Biol., Vol. 109, pp. 317-330, 1989, incorporated herein by reference. In brief, cells were cultured under 10% CO2 on Petri dishes (Falcon) coated with gelatin in DMEM (GIBCO) containing 10% calf serum (CS), 2 mM glutamine, 100 μg/ml streptomycin, 100 μg/ml penicillin, and 1 ng/ml basic fibroblast growth factor (bFGF). Cells were dissociated from culture plates with trypsin/EDTA and washed in DMEM containing 1% wt/vol BSA (BSA/DMEM). These cells were suspended in chemically defined medium (10 μg/ml high density lipoprotein/5 μg/ml transferrin/5 ng/ml bFGF in BSA/DMEM) as described in D. E. Ingber, Proc. Natl. Acad. Sci. USA, Vol. 87, pp. 3579-3583 (1990), incorporated herein by reference, introduced into capillary networks (pretreated with 50 μg/ml fibronectin for 1 hr) from the inlet wells, and incubated in 10% CO2 at 37° C. for 4-6 hr to permit attachment and spreading upon the glass cover slip forming the bottom of the microchannel network. […]
The flowing streams and attached BCEs were visualized utilizing a fluorescence inverted microscope, as illustrated in FIG. 3B. […]

[1] = system: BCE cells (actin filaments); assay: Partial treatment of single BCE cells with a membrane-permeable actin disrupting drug in a two-component laminar flow stream; type: cell-based, Bovine; settings: for actin cytoskeleton after treatment (phalloidin Alexa 594 stain): about 10 min
Method: Bovine adrenal capillary endothelial (BCE) cells were cultured and harvested as described in D. E. Ingber & J. Folkman, J. Cell Biol., Vol. 109, pp. 317-330, 1989, incorporated herein by reference. In brief, cells were cultured under 10% CO2 on Petri dishes (Falcon) coated with gelatin in DMEM (GIBCO) containing 10% calf serum (CS), 2 mM glutamine, 100 μg/ml streptomycin, 100 μg/ml penicillin, and 1 ng/ml basic fibroblast growth factor (bFGF). Cells were dissociated from culture plates with trypsin/EDTA and washed in DMEM containing 1% wt/vol BSA (BSA/DMEM). These cells were suspended in chemically defined medium (10 μg/ml high density lipoprotein/5 μg/ml transferrin/5 ng/ml bFGF in BSA/DMEM) as described in D. E. Ingber, Proc. Natl. Acad. Sci. USA, Vol. 87, pp. 3579-3583 (1990), incorporated herein by reference, introduced into capillary networks (pretreated with 50 μg/ml fibronectin for 1 hr) from the inlet wells, and incubated in 10% CO2 at 37° C. for 4-6 hr to permit attachment and spreading upon the glass cover slip forming the bottom of the microchannel network. After the above incubation to allow for binding and attachment, non-adherent cells were removed by washing each of the flow channels with media (1% wt/vol. BSA/DMEM) for about 3 min. at a maximum bulk flow velocity of about 0.6 cm/s (Re<1).
Device fabrication and cell culture and attachment of BCE cells was performed as described above in Example 1. Creation and maintenance of flow in the channels and selection and observation of a BCE cell positioned straddling the interface of two components of the flow stream established in the main flow channel was performed in a similar fashion as described previously in Example 1.
In the present example, prior to selective treatment of a portion of a single BCE cell with a membrane-permeable actin disrupting drug, the BCE cells attached to the microfluidic network were uniformly exposed to media containing Mitotracker Green™ FM mitochondrial stain, as described in Example 2, in order to uniformly stain the mitochondria of each of the BCE cells in the microfluidic channels. Subsequent to mitochondrial staining, partial cell treatment with the actin disrupting drug was accomplished by filling right-most well 316 (see FIG. 3A) of the microfluidic channel network with media containing latrunculin A (1 μM in DMEM/10% CS). Similar media, except not including the latrunculin A, was added to inlet wells 312 and 314, and flow was maintained during the experiment as described previously in Example 1. […]

Syto 9
time until intracellular diffusion reached approximately its steady state value (BCE cells): about 10 minutes

C/C1=C/C(=O)O[C@@H]2C[C@@H](CC[C@H](C)/C=C\C=C\CC1)O[C@@](O)([C@@H]1CSC(=O)N1)C2 [latrunculin A]
displacement of mitochondria and nucleus on local actin disruption ([1]; center cell, latrunculin A supplied to right-hand portion only, peripheral cell shape relatively unchanged): caused the mitochondria and nucleus to shift towards the left
actin cytoskeleton after treatment (phalloidin Alexa 594 stain) ([1]; center cell, only right-hand part exposed to latrunculin A-containing media, 1 μM): greatest degree of actin disruption evident in its treated, right side portion
positions of the mitochondria (Mitotracker Green FM stained) ([1]; center cell, right-hand part exposed to 1 μM latrunculin A for 10 min): have shifted towards the left-hand (untreated) part of the cell
actin cytoskeleton after treatment (phalloidin Alexa 594 stain) ([1]; rightmost cell fully exposed to latrunculin A-containing media, 1 μM in DMEM/10% CS): a substantial portion of the actin cytoskeleton appears, in the rightmost cell, to be depolymerized

— patent publication US6653089B2, “Differential treatment of selected parts of a single cell with different fluid components” (President and Fellows of Harvard College, priority 2000, dated 2003)
